Results taken from patent US11434232B2, “ATR inhibitor and application thereof” (WUXI BIOCITY BIOPHARMACEUTICS CO., LTD., priority 2018, dated 2022).

What was measured:
[1] = tested on: human colorectal cancer LoVo cell subcutaneous xenograft; assay: In vivo efficacy in colorectal cancer LoVo CDX model; set-up: species or system mouse; settings: 25 mg/kg orally twice a day, day 17 of administration, vs vehicle control group
Source text: LoVo is a colorectal adenocarcinoma tumor cell line with MRE11A mutation (MRE11A is a key component of DNA double-strand break repairing ATM signaling pathway), which is sensitive to ATR inhibitor. In this experiment, the colorectal cancer LoVo CDX model was used to verify the inhibitory effect of ATR inhibitor as monotherapy on tumors with defect in ATM signaling pathway.
Human colorectal cancer LoVo cells (ECACC, CatLog: 87060101), in vitro monolayer culture, culture conditions: Ham's F-12 medium with 10% fetal bovine serum, 100 U/mL penicillin, 100 μg/mL streptomycin and 2 mM glutamine, 37° C., 5% CO2 culture. General passage with trypsin-EDTA digestion was performed twice a week. When the cell saturation was 80%-90%, the cells were collected, counted, and inoculated. 0.1 mL (10×10^6) of LoVo cells were subcutaneously inoculated into the right back of each nude mouse. When the mean tumor volume reached 173 mm^3, grouping and administration were initiated.
25.51 mg of WX15 was weighed and dissolved in 0.500 mL of DMSO, which were added with 2.000 mL of propylene glycol and 2.500 mL of deionized water, vortexed for homogeneous mixing, adjusted to PH=6.0, to obtain a clear solution. The preparing processes of Compound WX42, Compound WX45, Compound WX46 were referred to Compound WX15.
Dosage: All test compounds were administered orally at 25 mg/kg twice a day, with an interval of 8 h in a day.
A vernier caliper was used to measure the tumor diameter twice a week. The formula for calculating the tumor volume: V=0.5a×b^2, a and b represent the long and short diameters of the tumor, respectively. Antitumor efficacy of the compound was evaluated by TGI (%) or relative tumor proliferation rate T/C (%). Relative tumor proliferation rate T/C (%)=TRTV/CRTV×100% (TRTV: mean RTV value of treatment group; CRTV: mean RTV value of negative control group). The relative tumor volume (relative tumor volume, RTV) was calculated based on the tumor measurement results and the calculation formula was RTV=Vt/V0, where V0 is the tumor volume measured at grouping administration (i.e. D0), Vt is the tumor volume at a measurement, and data on the same day was used for TRTV and CRTV.
TGI (%) reflects the tumor growth inhibition rate. TGI (%)=[1−(mean tumor volume at the end of administration in a treatment group−mean tumor volume at the beginning of administration in this treatment group)/(mean tumor volume at the end of treatment in the solvent control group−mean tumor volume at the beginning of treatment in the solvent control group)]×100%.

human ATR kinase = human ATR kinase (Homo sapiens (Human), UniProt Q13535); assay: In vitro evaluation of inhibitory activity on human ATR kinase (HTRF, ATR/ATRIP(h), GST-cMyc-p53 substrate); type: biochemical; settings: 50 nM GST-cMyc-p53, 30 min room temperature
Procedure: IC50 values were determined to evaluate the inhibitory activity of the tested compounds on human ATR kinase.
ATR/ATRIP(h) was incubated in assay buffer containing 50 nM GST-cMyc-p53 and Mg/ATP (according to concentration required). The reaction was initiated by adding Mg/ATP mixture. After incubating for 30 min at room temperature, a stop solution containing EDTA to was added to terminate the reaction. Finally, detecting buffer containing d^2-labeled anti-GST monoclonal antibody and europium-labeled anti-phospho Ser15 antibody against phosphorylated p^53 were added. Then the plate was read in time-resolved fluorescence mode and homogeneous time resolution was performed.
The fluorescence (HTRF) signal was determined according to the formula HTRF=10000×(Em665 nm/Em620 nm).
IC50 data was analyzed using XLFit version 5.3 (ID Business Solutions). Non-linear regression analysis was used to fit the sigmoidal dose response (variable slope) curve.

tumor cell line LoVo = assay: In vitro cell viability test (CellTiter-Glo), LoVo cell proliferation inhibition; type: cell-based; settings: Homo sapiens
Procedure: In this experiment, inhibitory effect of the compounds on cell proliferation was investigated by testing influence on cell viability in vitro in tumor cell line LoVo.
CellTiter-Glo Luminescence Cell Viability Test
The following protocols were performed according to instruction of PromegaCellTiter-Glo Luminescence cell viability test Kit (Promega-G7573). • (1) Thawing CellTiter-Glo buffer and allowing it to acclimate to room temperature. • (2) Allowing CellTiter-Glo substrate to acclimate to room temperature. • (3) Adding CellTiter-Glo buffer to a bottle of CellTiter-Glo substrate to dissolve the substrate to prepare CellTiter-Glo working solution. • (4) Vortexing slowly to full dissolution. • (5) Removing the cell culture plate and balancing it to room temperature for 30 min. • (6) Adding 50 μL (equivalent to half volume of cell culture medium in each well) of CellTiter-Glo working solution to each well, wrapping the cell plate with aluminum foil to protect from light. • (7) Shaking the culture plate on an orbital shaker for 2 min to induce cell lysis. • (8) Placing the culture plate at room temperature for 10 min to stabilize the luminescence signal. • (9) Detecting the luminescence signal on SpectraMax i3× of Molecular Devices plate reader. Data Analysis
The following formula was used to calculate the inhibition rate of the test compound (Inhibition rate, IR): IR(%)=(1−(RLU Compound−RLU Blank control)/(RLU Vehicle control−RLU Blank control))*100%.
The inhibition rates of different concentrations of compounds were calculated in Excel, and GraphPad Prism software was used to make the inhibition curve and calculate relevant parameters, including the minimum inhibition rate, the maximum inhibition rate and IC50.

[2] = Pharmacokinetic properties in vivo in female Balb/c Nude mice; set-up: species or system mouse; settings: for AUC(0-t) / clearance / half-life / C0 / Vd / Cmax: mouse, plasma; for C0: drug concentration at 0 min; for Vd: read-out: Vdss; for F: oral bioavailability, 10 mg/kg oral vs 1 mg/kg IV
Procedure: Experimental method: The purpose of this study was to determine the pharmacokinetic parameters of the compounds and calculate the oral bioavailability in female Balb/c Nude mice.
The project involved 6 female Balb/c Nude mice. 3 mice were administered intravenously at a dose of 1 mg/kg, and plasma samples were collected at 0 h (before administration) and 0.0833, 0.25, 0.5, 1, 2, 4, 6, 8 and 24 h after administration, other 3 mice were given by oral gavage at a dose of 10 mg/kg or 25 mg/kg, and plasma samples were collected at 0 h (before dosing) and 0.5, 1, 2, 3, 4, 6, 8, 24 h after administration. Then LC/MS/MS analysis was performed for the collected samples and data was collected. The collected analysis data was calculated for relevant pharmacokinetic parameters with Phoenix WinNonlin 6.2.1 software.

human ATR kinase, sequence (Q13535 whole entry): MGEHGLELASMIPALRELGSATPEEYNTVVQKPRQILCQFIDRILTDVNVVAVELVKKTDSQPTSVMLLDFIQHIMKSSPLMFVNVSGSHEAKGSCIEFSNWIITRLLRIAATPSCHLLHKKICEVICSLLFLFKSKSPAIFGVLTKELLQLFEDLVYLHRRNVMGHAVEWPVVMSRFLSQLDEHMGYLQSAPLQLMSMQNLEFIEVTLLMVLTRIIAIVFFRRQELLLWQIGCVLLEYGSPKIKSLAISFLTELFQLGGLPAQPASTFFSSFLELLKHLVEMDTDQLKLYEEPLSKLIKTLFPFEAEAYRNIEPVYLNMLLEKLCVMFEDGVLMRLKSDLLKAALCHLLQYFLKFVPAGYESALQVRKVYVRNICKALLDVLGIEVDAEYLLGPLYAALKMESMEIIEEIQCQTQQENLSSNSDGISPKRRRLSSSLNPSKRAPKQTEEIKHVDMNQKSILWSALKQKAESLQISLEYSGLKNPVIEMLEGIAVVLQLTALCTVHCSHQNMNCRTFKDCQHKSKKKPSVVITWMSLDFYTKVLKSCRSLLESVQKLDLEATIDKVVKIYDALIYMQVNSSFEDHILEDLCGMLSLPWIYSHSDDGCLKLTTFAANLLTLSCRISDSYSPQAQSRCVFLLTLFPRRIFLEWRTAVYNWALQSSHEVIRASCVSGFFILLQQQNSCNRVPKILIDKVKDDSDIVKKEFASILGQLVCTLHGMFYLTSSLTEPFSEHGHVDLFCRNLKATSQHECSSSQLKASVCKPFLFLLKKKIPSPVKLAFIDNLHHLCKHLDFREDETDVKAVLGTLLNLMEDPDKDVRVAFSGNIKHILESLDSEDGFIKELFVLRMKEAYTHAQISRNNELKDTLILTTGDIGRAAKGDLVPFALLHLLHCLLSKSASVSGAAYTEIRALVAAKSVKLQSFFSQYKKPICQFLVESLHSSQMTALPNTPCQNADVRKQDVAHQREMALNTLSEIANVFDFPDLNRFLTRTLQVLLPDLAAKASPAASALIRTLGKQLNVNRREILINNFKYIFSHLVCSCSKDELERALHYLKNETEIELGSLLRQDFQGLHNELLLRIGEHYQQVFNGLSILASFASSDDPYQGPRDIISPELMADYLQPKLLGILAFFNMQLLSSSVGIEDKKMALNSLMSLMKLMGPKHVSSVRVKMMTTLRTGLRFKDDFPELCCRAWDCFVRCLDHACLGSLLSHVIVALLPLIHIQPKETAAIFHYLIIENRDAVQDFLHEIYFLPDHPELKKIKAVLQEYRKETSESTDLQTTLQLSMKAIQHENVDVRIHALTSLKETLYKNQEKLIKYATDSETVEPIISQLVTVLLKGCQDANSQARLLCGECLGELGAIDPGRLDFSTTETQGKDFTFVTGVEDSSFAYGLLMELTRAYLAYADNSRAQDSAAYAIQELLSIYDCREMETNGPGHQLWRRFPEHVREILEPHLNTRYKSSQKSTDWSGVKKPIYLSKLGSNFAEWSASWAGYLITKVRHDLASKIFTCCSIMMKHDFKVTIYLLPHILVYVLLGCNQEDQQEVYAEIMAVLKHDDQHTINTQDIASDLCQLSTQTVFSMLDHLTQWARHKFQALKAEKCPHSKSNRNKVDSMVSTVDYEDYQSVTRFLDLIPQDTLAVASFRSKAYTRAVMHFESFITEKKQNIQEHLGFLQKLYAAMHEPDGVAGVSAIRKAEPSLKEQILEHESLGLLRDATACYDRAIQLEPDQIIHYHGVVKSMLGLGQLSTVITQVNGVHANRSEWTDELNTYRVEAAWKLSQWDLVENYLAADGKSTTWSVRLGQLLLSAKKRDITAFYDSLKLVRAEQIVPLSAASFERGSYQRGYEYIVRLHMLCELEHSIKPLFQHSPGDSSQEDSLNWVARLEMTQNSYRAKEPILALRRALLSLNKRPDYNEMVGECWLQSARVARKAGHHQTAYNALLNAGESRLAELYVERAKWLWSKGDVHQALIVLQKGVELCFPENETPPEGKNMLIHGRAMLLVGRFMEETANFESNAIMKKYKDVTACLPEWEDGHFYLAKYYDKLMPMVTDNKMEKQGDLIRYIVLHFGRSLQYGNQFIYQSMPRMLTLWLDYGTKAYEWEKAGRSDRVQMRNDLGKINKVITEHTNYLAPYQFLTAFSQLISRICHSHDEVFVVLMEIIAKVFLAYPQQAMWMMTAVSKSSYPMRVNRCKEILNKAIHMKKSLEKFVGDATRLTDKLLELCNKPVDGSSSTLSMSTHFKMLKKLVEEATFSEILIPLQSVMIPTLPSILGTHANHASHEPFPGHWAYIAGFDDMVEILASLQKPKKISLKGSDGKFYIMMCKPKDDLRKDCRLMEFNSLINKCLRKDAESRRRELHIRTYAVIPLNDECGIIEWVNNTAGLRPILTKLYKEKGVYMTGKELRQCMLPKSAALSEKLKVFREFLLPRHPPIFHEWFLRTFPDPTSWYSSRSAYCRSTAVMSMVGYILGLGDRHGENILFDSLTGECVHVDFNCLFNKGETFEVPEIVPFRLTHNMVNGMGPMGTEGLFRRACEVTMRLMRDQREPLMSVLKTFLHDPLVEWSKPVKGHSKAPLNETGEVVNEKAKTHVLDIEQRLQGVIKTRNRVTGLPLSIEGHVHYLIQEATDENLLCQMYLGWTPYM
human ATR kinase, sequence (Q8WXE1 whole entry partner): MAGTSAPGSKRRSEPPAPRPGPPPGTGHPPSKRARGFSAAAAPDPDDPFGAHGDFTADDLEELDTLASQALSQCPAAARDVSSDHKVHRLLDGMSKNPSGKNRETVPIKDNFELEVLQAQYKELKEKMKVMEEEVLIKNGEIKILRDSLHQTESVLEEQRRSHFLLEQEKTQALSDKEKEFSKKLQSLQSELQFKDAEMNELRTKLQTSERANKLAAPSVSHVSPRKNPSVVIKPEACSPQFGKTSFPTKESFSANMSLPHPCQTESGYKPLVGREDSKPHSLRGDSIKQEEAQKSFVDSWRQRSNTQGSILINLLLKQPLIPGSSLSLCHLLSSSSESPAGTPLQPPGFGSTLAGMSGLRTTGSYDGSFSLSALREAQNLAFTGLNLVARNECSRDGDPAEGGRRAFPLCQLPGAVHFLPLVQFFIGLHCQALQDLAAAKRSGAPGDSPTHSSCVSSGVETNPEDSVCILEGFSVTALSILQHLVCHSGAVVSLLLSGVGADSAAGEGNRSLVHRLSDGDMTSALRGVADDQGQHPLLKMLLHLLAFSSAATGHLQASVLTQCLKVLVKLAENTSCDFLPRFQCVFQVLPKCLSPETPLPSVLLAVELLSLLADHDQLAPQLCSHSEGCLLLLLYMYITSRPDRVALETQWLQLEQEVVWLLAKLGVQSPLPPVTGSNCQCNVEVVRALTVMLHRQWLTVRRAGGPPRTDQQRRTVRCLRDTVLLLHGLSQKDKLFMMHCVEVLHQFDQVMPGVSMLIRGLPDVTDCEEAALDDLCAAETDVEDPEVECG

IC50 (human ATR kinase) [nM] | IC50 (tumor cell line LoVo) [nM] | AUC(0-t) ([2]; 1 mg/kg IV) [µM·h] | clearance ([2]; 1 mg/kg IV) [mL/min/kg] | half-life ([2]; 1 mg/kg IV) [h] | C0 ([2]; 1 mg/kg IV) [µM] | Vd ([2]; 1 mg/kg IV) [L/kg] | AUC(0-t) ([2]; 10 mg/kg oral gavage) [µM·h] | Cmax ([2]; 10 mg/kg oral gavage) [µM] | half-life ([2]; 10 mg/kg oral gavage) [h] | F [2] [%] | AUC(0-t) ([2]; 25 mg/kg oral gavage) [µM·h] | Cmax ([2]; 25 mg/kg oral gavage) [µM] | half-life ([2]; 25 mg/kg oral gavage) [h] | SMILES | T/C (relative tumor proliferation rate) [1] [%] | TGI (tumor growth inhibition rate) [1] [%]
159 | 410 | 0.905 | 47 | 0.78 | 1.96 | 2.21 | 8.75 | 4.56 | 1.23 | 96.0 |  |  |  | C[C@@H]1COCCN1c1cc(-c2ccnn2C)nc(-c2ccnc3[nH]ccc23)n1 [WX15] | 46.7 | 66.8
29 | 510 | 1.09 | 34.3 | 2.57 | 1.96 | 2.21 | 15 | 6.5 | 2.02 | 129.0 |  |  |  | Cc1cnn(C)c1-c1cc(N2CCOC[C@H]2C)nc(-c2cc(CO)cc3[nH]ccc23)n1 [WX42] | 27.8 | 90.7
69 | 750 | 0.88 | 48.3 | 0.99 | 1.58 | 2.59 | 10.9 | 7.72 | 1.69 | 123.0 |  |  |  | Cc1nnc(C)n1-c1cc(N2CCOC[C@H]2C)nc(-c2cccc3[nH]ccc23)n1 [WX45] | 32.3 | 79.9
31 | 350 |  |  |  |  |  |  |  |  |  | 26.2 | 10.6 | 0.892 | Cc1nnc(C)n1-c1cc(N2CCOC[C@H]2C)nc(-c2cc(F)cc3[nH]ccc23)n1 [WX46] | 43.8 | 79.9
